Test results taken from US10316021B2, “Heteroarylphenoxy benzamide kappa opioid ligands” (Pfizer Inc., priority 2016, dated 2019).
Entries after “also recorded” stand apart in the source; their conditions may differ. Where two headings read alike, the source gives them in different places.

Experiments:
[1] = target: T1, human mu opioid receptor (hMOR) (Homo sapiens, UniProt P35372); test: Mu radioligand binding assay ([3H]diprenorphine, CHO cell membranes)
T1 construct: expressed in transfected cells; host or cells: CHO cells
T1 sequence (P35372 whole entry): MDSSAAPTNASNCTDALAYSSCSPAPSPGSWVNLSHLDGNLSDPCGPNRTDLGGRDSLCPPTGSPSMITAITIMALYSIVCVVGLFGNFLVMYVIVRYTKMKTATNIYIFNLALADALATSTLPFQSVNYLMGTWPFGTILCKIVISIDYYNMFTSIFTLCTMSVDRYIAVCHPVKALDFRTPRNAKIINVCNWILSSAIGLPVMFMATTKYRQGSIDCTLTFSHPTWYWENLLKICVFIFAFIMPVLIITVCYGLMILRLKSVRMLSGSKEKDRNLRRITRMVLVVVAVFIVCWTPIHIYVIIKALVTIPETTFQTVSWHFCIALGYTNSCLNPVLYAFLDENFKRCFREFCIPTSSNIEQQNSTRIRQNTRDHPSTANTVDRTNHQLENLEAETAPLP
Experimental: (§1) Kappa and Mu Radioligand Binding Assay:
Binding assays on membranes from CHO cells expressing human kappa or mu opioid receptors were performed according to standard procedures. Frozen cell paste was homogenized in 50 mM Tris HCl buffer (pH 7.4 @ 4 degrees C.) containing 2.0 mM MgCl2 using a Polytron and spun in a centrifuge at 40,000 g for ten minutes. The final pellet was resuspended in assay buffer (50 mM Tris HCl buffer, pH 7.4, containing 1 mM EDTA, 5 mM MgCl2). Incubations were initiated by the addition of membranes to 96-well plates containing test drugs and [^3H]diprenorphine (0.6 nM final concentration for kappa opioid receptor and 0.5 nM final concentration for mu) in a final volume of 250 μl. Non-specific binding was determined by radioligand binding in the presence of a saturating concentration of naltrexone (10 μM). After a one hour incubation period at room temperature, assay samples were rapidly filtered through PEI coated, GF/B fired Unifilter plates (PerkinElmer) and rinsed with ice-cold 50 mM Tris buffer (pH 7.4). Membrane bound [^3H]diprenorphine levels were determined by liquid scintillation counting of the filterplates in Ecolume scintillation fluid. […] Ki values were calculated according to the Cheng Prusoff equation, Ki=IC50/(1+(L/Kd)), where L is the concentration of the radioligand used in the experiment and the Kd value is the dissociation constant for the radioligand (determined previously by saturation analysis).

[2] = tested on: major CYP450 isozymes; test: CYP450 DDI cocktail assay (reversible inhibition, all isozymes together); format: in vitro ADME, human; conditions: CYP450 DDI cocktail assay, isozymes inhibited in brackets
Experimental: Multi-Point Cocktail DDI IC50 Assay Conditions:
Standard marker activity substrates were incubated with pooled human liver microsomes (HL-MIX-102) in the presence of NADPH (1.2 mM) in 100 mM KH2PO4, pH 7.4 containing 3.3 mM MgCl2 at 37° C. The incubation volume was 0.1 mL, utilizing a 384-well plate format. The microsomal protein concentrations (0.1 mg/mL) and P450 concentration (0.035 μM) was used for each probe substrate at the following concentrations [tacrine (1A2) 2 uM; diclofenac (2C9) 5 μM; dextromethorphan (2D6) 5 μM; midazolam (3A4) 2 μM; taxol (2C8) 5 μM; S-mephenytoin (2C19) 40 μM]. Substrate concentrations were near Km values that had been previously determined and incubation times were selected based on determinations of reaction velocity linearity. Each test compound/prototypical inhibitors was tested at a concentration range of 0-30 μM in triplicate, in final vehicle solvent concentrations of 0.9% acetonitrile and 0.1% DMSO. Incubations were initiated with the addition of NADPH. At the end of the incubation period, termination solvent containing internal standard was added, the terminated incubation mixture was centrifuged to precipitate microsomal protein. Samples were directly injected on an HPLC-MS/MS system. A Biomek FX workstation was used for liquid handling and sample incubation.
Reversible CYP450 inhibitory potential for each compound was assessed using the CYP450 DDI cocktail assay, measuring the inhibition of the metabolism of a known probe substrate of each of the major CYP isozymes at 3 μM concentration.

[3] = In vitro intrinsic clearance in human liver microsomes; format: in vitro ADME
Experimental: Determination of In Vitro Intrinsic Clearance in Human Liver Microsomes:
Compounds were prepared as solutions in methanol. The final concentration of methanol in the incubation media was 0.2% (v/v). […] The total incubation volume was 1 mL. The reaction mixture was pre-warmed at 37° C. for 2 min before adding NADPH (1.2 mM). Aliquots (75 μL) of the reaction mixture at 0, 5, 10, 15, and 30 min were added to acetonitrile (200 μL) containing internal standard (terfenadine)(0.05 μg/mL), and the samples were centrifuged at 2500 g for 5 min prior to liquid chromatography/tandem mass spectrometry (LC/MS-MS) analysis of each compound using multiple reaction monitoring (MRM). For control experiments, NADPH was omitted from these incubations.
The microsomal half-life (t1/2) was obtained from a log-linear plot of the substrate depletion vs incubation time and was scaled to hepatic intrinsic clearance (CLint) using the following equation, in which the term t1/2 refers to the in vitro half-life: […]

[4] = target: T2, human kappa opioid receptor (hKOR) (Homo sapiens, UniProt P41145); test: Kappa radioligand binding assay ([3H]diprenorphine, CHO cell membranes); conditions: for Selectivity hMOR/hKOR: selectivity ratio calculated by dividing the hMOR Ki by the hKOR Ki
T2 construct: expressed in transfected cells; host or cells: CHO cells
T2 sequence (P41145 whole entry): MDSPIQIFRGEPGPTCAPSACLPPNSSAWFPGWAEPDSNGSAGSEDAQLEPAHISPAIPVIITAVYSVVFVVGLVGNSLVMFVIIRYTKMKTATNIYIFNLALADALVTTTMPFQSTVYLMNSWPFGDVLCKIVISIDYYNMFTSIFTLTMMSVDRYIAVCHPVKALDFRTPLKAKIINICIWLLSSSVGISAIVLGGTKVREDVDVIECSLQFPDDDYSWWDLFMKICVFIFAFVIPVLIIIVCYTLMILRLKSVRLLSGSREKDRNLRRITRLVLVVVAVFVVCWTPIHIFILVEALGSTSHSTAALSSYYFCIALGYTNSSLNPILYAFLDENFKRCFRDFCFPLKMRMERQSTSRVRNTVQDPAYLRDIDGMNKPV
Experimental: as §1
Binding assays on membranes from CHO cells expressing human kappa or mu opioid receptors were performed according to standard procedures. Frozen cell paste was homogenized in 50 mM Tris HCl buffer (pH 7.4 @ 4 degrees C.) containing 2.0 mM MgCl2 using a Polytron and spun in a centrifuge at 40,000 g for ten minutes. The final pellet was resuspended in assay buffer (50 mM Tris HCl buffer, pH 7.4, containing 1 mM EDTA, 5 mM MgCl2). Incubations were initiated by the addition of membranes to 96-well plates containing test drugs and [^3H]diprenorphine (0.6 nM final concentration for kappa opioid receptor and 0.5 nM final concentration for mu) in a final volume of 250 μl. Non-specific binding was determined by radioligand binding in the presence of a saturating concentration of naltrexone (10 μM). After a one hour incubation period at room temperature, assay samples were rapidly filtered through PEI coated, GF/B fired Unifilter plates (PerkinElmer) and rinsed with ice-cold 50 mM Tris buffer (pH 7.4). Membrane bound [^3H]diprenorphine levels were determined by liquid scintillation counting of the filterplates in Ecolume scintillation fluid. The IC50 value (concentration at which 50% inhibition of specific binding occurs) was calculated using a logistic 4 parameter fit model of the concentration-response data. Ki values were calculated according to the Cheng Prusoff equation, Ki=IC50/(1+(L/Kd)), where L is the concentration of the radioligand used in the experiment and the Kd value is the dissociation constant for the radioligand (determined previously by saturation analysis).

[5] = target: T3, kappa opioid receptor (Mus musculus, UniProt P33534); test: Progressive ratio responding (reversal of spiradoline-induced deficit in motivation); format: in vivo; conditions: co-administered with spiradoline, receptor occupancy measured in a separate group of animals
T3 construct: from tissue; host or cells: brain of adult male C57BL/6J mice (in vivo)
T3 sequence (P33534 whole entry): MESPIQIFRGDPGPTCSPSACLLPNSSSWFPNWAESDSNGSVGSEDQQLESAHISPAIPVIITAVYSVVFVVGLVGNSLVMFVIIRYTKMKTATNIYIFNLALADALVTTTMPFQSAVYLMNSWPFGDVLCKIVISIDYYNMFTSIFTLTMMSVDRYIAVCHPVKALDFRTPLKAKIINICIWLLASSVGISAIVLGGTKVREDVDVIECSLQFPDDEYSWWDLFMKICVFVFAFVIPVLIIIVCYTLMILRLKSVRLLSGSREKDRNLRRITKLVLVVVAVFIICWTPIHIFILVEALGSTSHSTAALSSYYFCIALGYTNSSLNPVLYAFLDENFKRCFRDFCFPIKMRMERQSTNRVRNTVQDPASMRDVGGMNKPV
Text: (§2) Adult male C576BL/J6 mice from Jackson Labs (Bar Harbor, Me.) were group housed on individually-vented cage racks, in environmentally-controlled animal quarters (light/dark-6:00 am/6:[…]) for a minimum of 7 days prior to use. For progressive ratio studies, mice were food-restricted to 80-85% of their body weight before testing began. All animal procedures were approved by the Pfizer Inc. IACUC and conducted in accordance with the NIH Guide for the Care and Use of Laboratory Animals.
Progressive Ratio Responding:
Motivation and food-reinforced operant behavior were assessed in the progressive ratio assay. Adult male C576BL/J6 mice were food-restricted to 80-85% of their body weight over a period of one week and kept in their home cages. Mice were trained to nose-poke for a food reward. […] Mice were assessed in a 60 minute session, where the number of rewards obtained was used as a surrogate of the level of motivation. Once mice had reached a stable level of responding, mice were dosed with the kappa opioid receptor agonist, spiradoline (3.2 mg/kg s.c.), to induce a deficit in motivation. Mice were co-administered increasing doses of the kappa opioid receptor antagonists (0.0032-3.2 mg/kg s.c.) to assess their ability to antagonize the spiradoline-induced deficit.

[6] = target: T3, kappa opioid receptor; test: In vivo receptor occupancy (displacement of [3H]GR103545 in brain); conditions: subcutaneous dosing
Text: as §2
In Vivo Receptor Occupancy
In vivo receptor occupancy was assessed in adult male C57BL6/J mice. Mice were administered increasing doses (0.001-32 mg/kg s.c.) 30 min prior to administration of the kappa opioid receptor ligand, [^3H]GR103545 (100 μCi/kg, intraorbital). Animals were euthanized 10 min later using cervical dislocation and the brains dissected. One hemisphere was stored at −40° C. for subsequent measurement of compound concentration, the other was homogenized in chilled Tris-HCl buffer (50 mM, pH 7.4; 1:10 w/v) for twenty seconds. Samples of brain homogenate were filtered through 0.3 to 0.5% PEI-soaked GF/B filters, and the filters washed twice with chilled buffer before radioactivity was counted overnight using a scintillation counter. Binding of the ligand in cerebellum was used to determine non-specific binding.

[7] = Table 19, geometric mean of 2-6 determinations unless otherwise indicated (Example 3: >=7), read-out: hMOR binding assay Ki
[8] = Table 20, radioligand binding, read-out: hMOR binding assay Ki
[9] = Table 19, geometric mean of 2-6 determinations unless otherwise indicated (Example 3: >=7), read-out: hKOR binding assay Ki
[10] = Table 20, radioligand binding, read-out: hKOR binding assay Ki

Ki [1, 7]	Ki [1, 8]	>25% reversible inhibition of CYP activity at 3 μM (CYP) [2]	hepatic / metabolic clearance in human liver microsomes, in words [3]	CLint scaled at 2 μM ([3]; human, pH 7.4, human liver microsomal intrinsic clearance, read-out: HLM CLint)	Ki [4, 9]	Ki [4, 10]	Selectivity hMOR/hKOR [4]	KOR potency, in words [4]	% KOR IVRO to achieve 50% PR reversal [5]	IC50 ([6]; displacement of [3H]GR103545, unbound brain concentration, read-out: Mouse KOR IVRO unbound brain IC50)	Ki ([1]; radioligand binding, [3H]diprenorphine, read-out: hMOR Ki)	Ki ([4]; radioligand binding, [3H]diprenorphine, read-out: hKOR Ki)	Structure (SMILES)	selectivity for KOR over MOR, in words [4]	displacement of KOR agonist radioligand binding in the brain, in words [6]
25 nM	25 nM	no	higher metabolic clearance	105 mL/min/kg	0.657 nM	0.657 nM	38						COc1cc(C2CCCN2Cc2ccc(Oc3ccc(C(N)=O)cc3)cc2)n(C)n1 (single isomer, unassigned) [Example 46, 4-(4-{[2-(3-methoxy-1-methyl-1H-pyrazol-5-yl)pyrrolidin-1-yl]methyl}phenoxy)benzamide]		
318 nM	318 nM				54.7 nM	54.7 nM	5.8	low KOR potency					Cc1cc(C2CCCN2Cc2ccc(Oc3ccc(C(N)=O)cc3F)cc2)on1 (centres unmarked) [Example 42]		
56.2 nM	56.2 nM				16.8 nM	16.8 nM	3						Cc1cnn(C)c1C1CCCN1Cc1ccc(Oc2ccc(C(N)=O)cc2F)cc1 (centres unmarked) [Example 43]	unacceptably lower levels of selectivity (MOR/KOR)	
127 nM	127 nM				14.5 nM	14.5 nM	9						Cc1cc(C2CCCN2Cc2ccc(Oc3ccc(C(N)=O)cc3F)cc2)nn1C (centres unmarked) [Example 44]	unacceptably lower levels of selectivity (MOR/KOR)	
108 nM	108 nM				1.7 nM	1.7 nM	64	excellent potency	85%	0.25 nM			Cc1cc([C@@H]2CCCN2Cc2ccc(Oc3ccc(C(N)=O)cc3F)cc2)n(C)n1 [Example 45, 4-(4-{[(2S)-2-(1,3-dimethyl-1H-pyrazol-5-yl)pyrrolidin-1-yl]methyl}phenoxy)-3-fluorobenzamide]	excellent potency and selectivity over MOR; also recorded: more selective than the phenyl examples, Comparators A and B	displaced KOR agonist radioligand ([^3H]GR103545) binding in the brain in an exposure-dependent manner
											1210 nM	36.3 nM	COc1nn(C)cc1C1CC(F)CN1Cc1ccc(Oc2ccc(C(N)=O)cc2)cc1 (stereo not drawn) [isomer of Example 24]		
